For this test, the target named is T1, recombinant 15-PGDH (Homo sapiens, UniProt P15428).
T1 sequence (P15428 1-266): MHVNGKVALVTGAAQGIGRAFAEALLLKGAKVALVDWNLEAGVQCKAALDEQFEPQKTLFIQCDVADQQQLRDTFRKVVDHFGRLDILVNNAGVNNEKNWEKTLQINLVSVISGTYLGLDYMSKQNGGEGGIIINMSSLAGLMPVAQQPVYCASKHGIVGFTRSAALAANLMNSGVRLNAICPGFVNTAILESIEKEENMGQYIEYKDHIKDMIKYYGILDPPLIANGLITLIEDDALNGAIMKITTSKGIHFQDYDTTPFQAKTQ
It is filed as biochemical. The following applies: recombinant human 15-PGDH, in vitro; read-out: PDGH Assay-IC50.

Where only a bound is given, the exact number is not on record here.

Broadly, the IC50 is the midpoint of a concentration-inhibition curve.

Text: The Recombinant 15-PGDH is human unless otherwise specified.

On to `COCCC[S+]([O-])c1sc2nc(-c3cccnc3)cc(C(F)(F)F)c2c1N` (stereo not shown) [Example 56], for which the IC50 is < 2.5 nM. The result for `CS(=O)(=O)Nc1ncc(-c2cc(-c3ccccn3)c3c(N)c([S+]([O-])C4CCC4)sc3n2)cn1` (stereo not shown) [Example 108] reads < 2.5 nM; that for `COCC[S@+]([O-])c1sc2nc(-c3cnc4nn(C)cc4c3)nc(-c3ccccc3)c2c1N` [Example 434], ≥ 10 nM. The result for `CN(C)CCOc1ncc(-c2cc(-c3ccccc3)c3c(N)c([S+]([O-])C4CCC4)sc3n2)cn1` (stereo not shown) [Example 47] reads 2.5 to 10 nM; that for `COC(=O)Nc1ccc(-c2cc(-c3ccnn3C)c3c(N)c([S+]([O-])C4CCC4)sc3n2)cn1` (stereo not shown) [Example 392], < 2.5 nM.

As for `Cc1nn(C)cc1-c1cc(-c2cnc(N)nc2)nc2sc([S+]([O-])C3CCC3)c(N)c12` (stereo not shown) [Example 218], the IC50 is < 2.5 nM. As for `Cn1nccc1-c1cc(-c2cnc3c(c2)CNC3=O)nc2sc([S+]([O-])C3CCC3)c(N)c12` (stereo not shown) [Example 305], the figure is < 2.5 nM.

Turning to `Cn1ccc(-c2cc(-c3cnc(N)nc3)nc3sc([S+]([O-])C4CCC4)c(N)c23)n1` (stereo not shown) [Example 338], the IC50 was < 2.5 nM.

For the compound `COCC[S+]([O-])c1sc2nc(-c3cccnc3)cc(C(F)(F)F)c2c1N` (stereo not shown) [Example 57], the IC50 is < 2.5 nM. As for `Nc1c([S+]([O-])C2CCC2)sc2nc(-c3cncnc3)cc(-c3ccc(OCCO)cc3)c12` (stereo not shown) [Example 183], the IC50 is < 2.5 nM. As for `COCC[S+]([O-])c1sc2nc(-c3cnc(NCCO)nc3)cc(-c3ccccc3)c2c1N` (stereo not shown) [Example 126], the figure is < 2.5 nM; as for `COCC[S+]([O-])c1sc2nc(-c3cnc4c(c3)CN(C)C4=O)cc(-c3ccccc3)c2c1N` (stereo not shown) [Example 384], < 2.5 nM; as for `CNc1ncc(-c2cc(-c3ccnn3C)c3c(N)c([S@+]([O-])CCOC)sc3n2)cn1` [Example 331], < 2.5 nM. As for `COCC[S@+]([O-])c1sc2nc(-c3ccnnc3)cc(-c3ccccc3)c2c1N` [Example 212], the figure is ≥ 10 nM; as for `COCC[S@@+]([O-])c1sc2nc(-c3cncnc3)cc(-c3ccccc3)c2c1N` [Example 85], < 2.5 nM. The result for `COCCn1ccc(-c2cc(-c3cnc4nn(C)cc4c3)nc3sc([S@@+]([O-])CCOC)c(N)c23)n1` [Example 388] reads ≥ 10 nM; that for `Nc1c([S@@+]([O-])C2CCC2)sc2nc(-c3cnc(NCCO)nc3)cc(-c3ccccn3)c12` [Example 95], ≥ 10 nM. In the case of `Nc1c([S+]([O-])C2CCC2)sc2nc(-c3cnc(NCCO)nc3)cc(C3COC3)c12` (stereo not shown) [Example 222], the IC50 was < 2.5 nM. The result for `COCC[S@@+]([O-])c1sc2nc(-c3cc(=O)n(C)cn3)cc(-c3ccccc3)c2c1N` [Example 220] reads < 2.5 nM; that for `COCC[S@+]([O-])c1sc2nc(-c3cncnc3)cc(C3CC3)c2c1N` [Example 149], ≥ 10 nM. The result for `COCCC[S@+]([O-])c1sc2nc(-c3cncnc3)cc(-c3cnccn3)c2c1N` [Example 235] reads < 2.5 nM; that for `COCC[S+]([O-])c1sc2nc(-c3cnc(N4CC(O)C4)nc3)cc(-c3ccccc3)c2c1N` (stereo not shown) [Example 300], 2.5 to 10 nM. As for `Nc1ncc(-c2cc(-c3ccno3)c3c(N)c([S+]([O-])C4CCC4)sc3n2)cn1` (stereo not shown) [Example 350], the figure is < 2.5 nM; as for `COCC[S+]([O-])c1sc2nc(-c3cnc(NCCO)nc3)nc(-c3ccccc3)c2c1N` (stereo not shown) [Example 432], 2.5 to 10 nM. Consider `COCCC[S@@+]([O-])c1sc2nc(-c3cnc(N)nc3)cc(C(F)(F)F)c2c1N` [Example 203], for which the IC50 is < 2.5 nM. Turning to `Cn1nccc1-c1cc(-c2cnc3c(c2)nnn3C)nc2sc([S@+]([O-])C3CCC3)c(N)c12` [Example 326], the IC50 is < 2.5 nM.

For the compound `COCC[S+]([O-])c1sc2nc(-c3cnc4c(c3)nnn4C)cc(-c3ccnn3C)c2c1N` (stereo not shown) [Example 324], the IC50 was < 2.5 nM.

Regarding `CNc1ncc(-c2cc(-c3ccnn3C)c3c(N)c([S@@+]([O-])CCOC)sc3n2)cn1` [Example 332], the IC50 was ≥ 10 nM.
